In ChEMBL document CHEMBL5150077, “Identification of TUL01101: A Novel Potent and Selective JAK1 Inhibitor for the Treatment of Rheumatoid Arthritis” (J Med Chem, 2022):
Calls of active or inactive are those of the source. The rule behind the calls is not given here.

Legend:
[1] = Apparent permeability across basolateral to apical side in human Caco-2 cells at 10 uM measured after 120 mins by LC-MS/MS analysis
[2] = Metabolic stability in mouse hepatocytes assessed as intrinsic clearance at 1 uM incubated for 90 mins by LC/MS/MS analysis; format: ADME, cell-based, Hepatocyte
Mus musculus [3] = experiment: Antiarthritic activity in collagen-induced rheumatoid arthritis DBA/1 mouse model assessed as reduction in clinical score AUC at 15 mg/kg, po BID administered for 14 days starting from 7 days before immunization to 21 days after immunization and measured on day 41 post immunization; format: functional, organism-based; settings: time 14.0 day
[4] = Microsomal stability in rat liver microsomes assessed as intrinsic clearance at 1 uM incubated for 60 mins in presence of NADPH regenerating system by LC-MS/MS analysis; format: ADME, Microsome; settings: read-out: CLH
[5] = Microsomal stability in mouse liver microsomes assessed as intrinsic clearance at 1 uM incubated for 60 mins in presence of NADPH regenerating system by LC-MS/MS analysis; format: ADME, Microsome; settings: read-out: CLH
[6] = Metabolic stability in rat hepatocytes assessed as intrinsic clearance at 1 uM incubated for 90 mins by LC/MS/MS analysis; format: ADME, cell-based, Hepatocyte
[7] = Plasma protein binding in human assessed as unbound fraction at 2 uM incubated for 4 hrs by LC/MS/MS based balanced dialysis method
Cytochrome P450 2C19 = Cytochrome P450 2C19 (Homo sapiens, UniProt P33261); experiment: Inhibition of CYP2C19 in human liver microsomes incubated in presence NADPH by LC-MS/MS analysis
Cytochrome P450 2C19, sequence (P33261 whole entry): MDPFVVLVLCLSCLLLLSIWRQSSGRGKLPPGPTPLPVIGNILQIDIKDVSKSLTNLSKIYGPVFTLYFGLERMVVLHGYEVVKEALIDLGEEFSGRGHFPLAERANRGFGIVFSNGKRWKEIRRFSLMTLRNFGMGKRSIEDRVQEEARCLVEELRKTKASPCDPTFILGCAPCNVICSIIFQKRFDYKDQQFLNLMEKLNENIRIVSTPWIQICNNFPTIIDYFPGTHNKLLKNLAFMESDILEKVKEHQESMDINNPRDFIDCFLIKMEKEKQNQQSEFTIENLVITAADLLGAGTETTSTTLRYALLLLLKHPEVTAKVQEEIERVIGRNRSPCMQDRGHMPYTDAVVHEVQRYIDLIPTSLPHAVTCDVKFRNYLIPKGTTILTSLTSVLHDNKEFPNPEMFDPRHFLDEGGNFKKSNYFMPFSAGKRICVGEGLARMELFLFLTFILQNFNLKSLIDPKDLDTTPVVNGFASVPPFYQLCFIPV

Cytochrome P450 2C8 = molecular target: T1, Cytochrome P450 2C8 (Homo sapiens, UniProt P10632); experiment: Inhibition of CYP2C8 in human liver microsomes incubated in presence NADPH by LC-MS/MS analysis
T1 sequence (P10632 whole entry): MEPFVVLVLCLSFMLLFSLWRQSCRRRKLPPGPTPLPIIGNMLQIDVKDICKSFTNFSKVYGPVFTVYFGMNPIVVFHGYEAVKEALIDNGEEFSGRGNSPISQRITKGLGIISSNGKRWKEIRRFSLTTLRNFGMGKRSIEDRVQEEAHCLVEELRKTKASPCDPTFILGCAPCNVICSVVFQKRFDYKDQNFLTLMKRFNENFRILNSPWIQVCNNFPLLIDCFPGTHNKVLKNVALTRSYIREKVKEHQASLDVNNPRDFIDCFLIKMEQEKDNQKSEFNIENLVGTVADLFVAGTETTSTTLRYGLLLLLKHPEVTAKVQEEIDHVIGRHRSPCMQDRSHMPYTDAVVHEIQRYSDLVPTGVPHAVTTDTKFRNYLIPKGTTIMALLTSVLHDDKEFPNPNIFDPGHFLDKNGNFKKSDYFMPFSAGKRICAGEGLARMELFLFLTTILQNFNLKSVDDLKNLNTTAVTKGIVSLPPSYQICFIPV

[8] = Plasma protein binding in rat assessed as unbound fraction at 2 uM incubated for 4 hrs by LC/MS/MS based balanced dialysis method
[9] = Metabolic stability in human hepatocytes assessed as intrinsic clearance at 1 uM incubated for 90 mins by LC/MS/MS analysis; format: ADME, cell-based, Hepatocyte
[10] = Plasma protein binding in mouse assessed as unbound fraction at 2 uM incubated for 4 hrs by LC/MS/MS based balanced dialysis method
Cytochrome P450 1A2 = molecular target: T2, Cytochrome P450 1A2 (Homo sapiens, UniProt P05177); experiment: Inhibition of CYP1A2 in human liver microsomes incubated in presence NADPH by LC-MS/MS analysis
T2 sequence (P05177 whole entry): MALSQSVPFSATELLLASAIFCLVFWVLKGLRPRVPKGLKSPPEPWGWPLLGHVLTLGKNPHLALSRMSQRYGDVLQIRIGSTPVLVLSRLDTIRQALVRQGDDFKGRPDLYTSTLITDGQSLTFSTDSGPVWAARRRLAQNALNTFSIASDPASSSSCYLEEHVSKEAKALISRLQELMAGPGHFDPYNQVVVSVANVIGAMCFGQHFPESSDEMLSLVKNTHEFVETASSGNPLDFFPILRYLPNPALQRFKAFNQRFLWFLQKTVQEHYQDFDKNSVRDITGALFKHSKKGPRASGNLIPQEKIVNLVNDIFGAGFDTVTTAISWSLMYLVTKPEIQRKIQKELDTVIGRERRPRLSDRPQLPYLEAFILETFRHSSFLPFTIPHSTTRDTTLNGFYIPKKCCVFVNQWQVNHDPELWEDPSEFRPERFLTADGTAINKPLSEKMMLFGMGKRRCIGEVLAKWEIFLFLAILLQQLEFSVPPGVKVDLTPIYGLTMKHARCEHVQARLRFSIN

[11] = Apparent permeability across apical to basolateral side in human Caco-2 cells at 10 uM measured after 120 mins by LC-MS/MS analysis; settings: for Papp A→B at 2 h, 10 µM: Caco-2
Cytochrome P450 2C9 = Cytochrome P450 2C9 (Homo sapiens, UniProt P11712); experiment: Inhibition of CYP2C9 in human liver microsomes incubated in presence NADPH by LC-MS/MS analysis
Cytochrome P450 2C9, sequence (P11712 whole entry): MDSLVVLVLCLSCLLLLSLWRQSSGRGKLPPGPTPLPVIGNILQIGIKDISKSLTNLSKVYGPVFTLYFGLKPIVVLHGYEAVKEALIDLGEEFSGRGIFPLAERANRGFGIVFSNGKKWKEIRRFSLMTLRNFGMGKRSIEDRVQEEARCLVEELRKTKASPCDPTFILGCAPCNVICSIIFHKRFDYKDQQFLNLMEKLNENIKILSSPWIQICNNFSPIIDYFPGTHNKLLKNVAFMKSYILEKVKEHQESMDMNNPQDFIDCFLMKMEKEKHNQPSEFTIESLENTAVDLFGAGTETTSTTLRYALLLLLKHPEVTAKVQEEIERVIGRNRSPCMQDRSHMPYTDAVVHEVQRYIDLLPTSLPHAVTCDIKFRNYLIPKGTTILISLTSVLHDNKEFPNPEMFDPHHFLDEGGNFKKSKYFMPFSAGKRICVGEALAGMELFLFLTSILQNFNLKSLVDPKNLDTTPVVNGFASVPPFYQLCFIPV

Cytochrome P450 2D6 = Cytochrome P450 2D6 (Homo sapiens, UniProt P10635); experiment: Inhibition of CYP2D6 in human liver microsomes incubated in presence NADPH by LC-MS/MS analysis
Cytochrome P450 2D6, sequence (P10635 whole entry): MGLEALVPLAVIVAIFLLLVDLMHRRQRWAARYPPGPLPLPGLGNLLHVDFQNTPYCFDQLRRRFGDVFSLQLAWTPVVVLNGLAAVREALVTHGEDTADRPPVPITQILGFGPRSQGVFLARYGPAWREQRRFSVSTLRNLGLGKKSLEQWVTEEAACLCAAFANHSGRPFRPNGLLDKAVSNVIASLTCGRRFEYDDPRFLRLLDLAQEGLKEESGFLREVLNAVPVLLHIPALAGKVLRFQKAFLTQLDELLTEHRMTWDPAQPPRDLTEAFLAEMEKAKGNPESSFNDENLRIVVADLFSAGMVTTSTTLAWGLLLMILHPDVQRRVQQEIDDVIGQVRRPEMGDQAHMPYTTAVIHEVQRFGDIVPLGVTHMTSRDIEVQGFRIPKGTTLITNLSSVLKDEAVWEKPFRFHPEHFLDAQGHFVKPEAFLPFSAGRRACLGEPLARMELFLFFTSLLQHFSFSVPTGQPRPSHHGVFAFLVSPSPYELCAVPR

[12] = Microsomal stability in human liver microsomes assessed as intrinsic clearance at 1 uM incubated for 60 mins in presence of NADPH regenerating system by LC-MS/MS analysis; format: ADME, Microsome; settings: read-out: CLH
Cytochrome P450 2B6 = molecular target: T3, Cytochrome P450 2B6 (Homo sapiens, UniProt P20813); experiment: Inhibition of CYP2B6 in human liver microsomes incubated in presence NADPH by LC-MS/MS analysis
T3 sequence (P20813 whole entry): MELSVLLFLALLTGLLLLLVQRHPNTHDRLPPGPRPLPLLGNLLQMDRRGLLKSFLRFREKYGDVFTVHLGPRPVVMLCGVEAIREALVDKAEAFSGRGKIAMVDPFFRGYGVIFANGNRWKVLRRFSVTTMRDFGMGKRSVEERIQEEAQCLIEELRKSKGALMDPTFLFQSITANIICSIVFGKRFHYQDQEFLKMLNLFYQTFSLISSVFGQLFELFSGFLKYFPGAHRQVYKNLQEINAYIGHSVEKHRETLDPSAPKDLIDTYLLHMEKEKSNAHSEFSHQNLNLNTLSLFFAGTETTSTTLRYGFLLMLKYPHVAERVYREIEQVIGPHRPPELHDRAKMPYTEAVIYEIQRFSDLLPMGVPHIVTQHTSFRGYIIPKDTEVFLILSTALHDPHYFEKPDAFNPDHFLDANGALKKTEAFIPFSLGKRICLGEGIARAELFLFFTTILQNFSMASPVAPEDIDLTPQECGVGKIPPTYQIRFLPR

Mus musculus [13] = experiment: Antiarthritic activity in collagen-induced rheumatoid arthritis DBA/1 mouse model assessed as reduction in incidence rate at 15 mg/kg, po BID administered for 14 days starting from 7 days before immunization to 21 days after immunization and measured post last dose; format: functional; set-up: scale not given: the % may be the effect or the level left; settings: time 14 day
[14] = Efflux ratio of apparent permeability from basolateral to apical side over apical to basolateral side in human Caco-2 cells at 10 uM incubated for 120 mins by LC-MS/MS analysis
Homo sapiens [15] = organism: Homo sapiens; experiment: Selectivity index, ratio of IC50 for inhibition of recombinant human JAK2 to IC50 for inhibition of recombinant human JAK1
Cytochrome P450 3A4 = Cytochrome P450 3A4 (Homo sapiens, UniProt P08684); experiment: Inhibition of CYP3A4 in human liver microsomes incubated in presence NADPH by LC-MS/MS analysis
Cytochrome P450 3A4, sequence (P08684 whole entry): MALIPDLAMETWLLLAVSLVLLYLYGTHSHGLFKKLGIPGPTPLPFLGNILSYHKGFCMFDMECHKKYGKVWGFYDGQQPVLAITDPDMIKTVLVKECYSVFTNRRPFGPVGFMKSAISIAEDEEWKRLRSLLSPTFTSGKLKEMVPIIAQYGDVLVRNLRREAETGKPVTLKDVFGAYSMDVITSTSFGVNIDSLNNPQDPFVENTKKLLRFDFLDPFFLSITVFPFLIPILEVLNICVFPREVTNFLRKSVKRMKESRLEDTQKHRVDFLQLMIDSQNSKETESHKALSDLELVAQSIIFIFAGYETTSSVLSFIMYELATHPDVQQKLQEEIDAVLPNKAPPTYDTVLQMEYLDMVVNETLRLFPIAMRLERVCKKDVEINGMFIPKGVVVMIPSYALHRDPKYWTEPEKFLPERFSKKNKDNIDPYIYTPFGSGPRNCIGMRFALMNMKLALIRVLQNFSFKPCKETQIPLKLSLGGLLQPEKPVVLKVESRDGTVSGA

Homo sapiens [16] = organism: Homo sapiens; experiment: Selectivity index, ratio of IC50 for inhibition of recombinant human TYK2 to IC50 for inhibition of recombinant human JAK1

Row | Papp B→A at 2 h, 10 µM [1] [×10⁻⁶ cm/s] | CLH [2] [µL/min/mg] | microsomal CLint at 1 µM [4] [µL/min/mg] | microsomal CLint at 1 µM [5] [µL/min/mg] | CLH [6] [µL/min/mg] | fraction unbound at 4 h, 2 µM [7] | IC50 (Cytochrome P450 2C19) [µM] | IC50 (Cytochrome P450 2C8) [µM] | fraction unbound at 4 h, 2 µM [8] | CLH [9] [µL/min/mg] | fraction unbound at 4 h, 2 µM [10] | IC50 (Cytochrome P450 1A2) [µM] | IC50 (Cytochrome P450 2C9) [µM] | IC50 (Cytochrome P450 2D6) [µM] | microsomal CLint at 1 µM [12] [µL/min/mg] | IC50 (Cytochrome P450 2B6) [µM] | Papp A→B at 2 h, 10 µM [11] [×10⁻⁶ cm/s] | IC50 (Cytochrome P450 3A4) [µM] | SMILES | further results
1 | 24.5 | 22.3 | < 9.6 | < 9.6 | < 6.4 | 0.518 | 88.2 | > 100 | 0.399 | < 6.4 | 0.316 | 65.6 | > 100 | > 100 | < 9.6 | > 100 |  |  | O=C(Nc1nc2cccc(-c3ccc(CN4CCS(=O)(=O)CC4)cc3)n2n1)C1CC1 [FILGOTINIB] | Activity (Mus musculus [3]): Active; Papp ([11]; caco-2, 2 h, 10 µM): 0.28 10^-6 cm/s; Activity (Mus musculus [13]): 100%
2 | 28.6 | 15.3 | < 9.6 | 10.6 | < 6.4 | 0.306 | > 100 | > 100 | 0.196 | < 6.4 | 0.28 | > 100 | > 100 | > 100 | < 9.6 | > 100 | 4.36 | > 100 | O=C(Nc1nc2cccc(C3CCC(NC(=O)C4(F)CC4)CC3)n2n1)C1CC1 (stereo not drawn) | efflux ratio at 2 h, 10 µM [14]: 6.57; Ratio IC50 (Homo sapiens [15]): 11.6; Ratio IC50 (Homo sapiens [16]): 4.1
3 | 20.4 | < 6.6 | < 9.6 | < 9.6 | < 6.4 | 0.515 | > 100 | > 100 | 0.544 | < 6.4 | 0.479 | > 100 | > 100 | > 100 | < 9.6 | > 100 | 0.1 | > 100 | N#CCC(=O)N1CC2(CCC(c3cccc4nc(NC(=O)C5CC5)nn34)CC2)C1 | 
